Experiments:
RAW264.7 [1] = experiment: Antiinflammatory activity in mouse RAW264.7 cells assessed as inhibition of LPS-induced NO production after 24 hrs by Griess assay; format: functional, cell-based; conditions: RAW264.7, 24 h
RAW264.7 [2] = experiment: Cytotoxicity against mouse RAW264.7 cells after 24 hrs by MTT assay; format: cell-based; conditions: raw264.7, 24 h

SMILES | IC50 (RAW264.7 [1]) [µM] | Activity (RAW264.7 [2])
CC(C)=CCc1cc([C@@H]2CC(=O)c3ccc(O)c(CC=C(C)C)c3O2)cc(CC=C(C)C)c1O | 28.1 | Non-toxic
C/C=C/C(=O)OC[C@H]1O[C@@H](Oc2ccc3c(c2)OC[C@H]2c4cc5c(cc4O[C@@H]32)OCO5)[C@H](O)[C@@H](O)[C@@H]1O | 33 | Non-toxic
CC(C)=CCc1cc([C@@H]2CC(=O)c3ccc(O)c(CC=C(C)C)c3O2)cc2c1OC(C)(C)C=C2 | 13.6 | Non-toxic
Oc1ccc2c(c1)OC[C@H]1c3cc4c(cc3O[C@@H]21)OCO4 [MAACKIAIN] | 27 | Non-toxic
COc1cc([C@H]2OC[C@@H]3C(c4cc(OC)c(O)c(OC)c4)OC[C@H]23)ccc1O (some centres not stated) [MEDIORESINOL] | 41 | Non-toxic
N=C(N)NN [PIMAGEDINE] | 18.7 | Non-toxic
COc1cc([C@H]2OC[C@H]3[C@@H]2CO[C@@H]3c2cc(OC)c(O)c(OC)c2)cc(OC)c1O [SYRINGARESINOL] | > 50 | Non-toxic

Continued, in another order:

IC50 (RAW264.7 [1]) [µM] | SMILES | Activity (RAW264.7 [2])
> 50 | O=c1cc(-c2ccc(O)cc2)oc2cc(O)ccc12 | Non-toxic
45.1 | COc1cc([C@@H]2OC[C@@H]3[C@H]2CO[C@H]3c2ccc(O)c(OC)c2)ccc1O [(+)-PINORESINOL] | Non-toxic
> 50 | COc1ccc(-c2coc3cc(O)ccc3c2=O)cc1O [CALYCOSIN] | Non-toxic
> 50 | O=c1c(-c2ccc(O)cc2)coc2cc(O)cc(O)c12 [GENISTEIN] | Non-toxic
